Measured values taken from ChEMBL document CHEMBL3271981, “Potential histamine H2-receptor antagonists. 3. Methylhistamines” (J Med Chem, 1976).
The source made the active and inactive calls. The rule behind the calls is not given here.

Columns and labels:
[1] = target: Histamine H1 receptor (Cavia porcellus) (UniProt P31389); experiment: In vitro agonist activity at histamine H1 receptor in guinea pig ileum assessed as contractile response relative to histamine in presence of atropine; format: tissue-based
[2] = system: Rattus norvegicus; experiment: In vivo agonist activity at histamine H2 receptor in iv dosed anesthetized rat assessed as stimulation of gastric acid secretion relative to histamine; format: functional, Stomach
[3] = system: Rattus norvegicus; experiment: In vivo antagonist activity at histamine H2 receptor in anesthetized rat assessed as inhibition of histamine-stimulated gastric acid secretion up to 256 umol/kg, iv; format: functional, organism-based; settings: Stomach
[4] = Retardation factor of the compound using EtOCH2CH2OH-HCl(11N)-H2O at ratio of 8:1:1 as solvent system by thin layer chromatography; format: physicochemical; settings: buffer
[5] = Retardation factor of the compound using MeOH-NH4OH-H2O at ratio of 6:1:1 as solvent system by thin layer chromatography; format: physicochemical
[6] = system: Rattus norvegicus; experiment: In vivo agonist activity at histamine H2 receptor in anesthetized rat assessed as stimulation of gastric acid secretion at 486 uml/kg, iv; format: functional, organism-based; settings: Stomach

Chain of Histamine H1 receptor (Cavia porcellus) (P31389 whole entry): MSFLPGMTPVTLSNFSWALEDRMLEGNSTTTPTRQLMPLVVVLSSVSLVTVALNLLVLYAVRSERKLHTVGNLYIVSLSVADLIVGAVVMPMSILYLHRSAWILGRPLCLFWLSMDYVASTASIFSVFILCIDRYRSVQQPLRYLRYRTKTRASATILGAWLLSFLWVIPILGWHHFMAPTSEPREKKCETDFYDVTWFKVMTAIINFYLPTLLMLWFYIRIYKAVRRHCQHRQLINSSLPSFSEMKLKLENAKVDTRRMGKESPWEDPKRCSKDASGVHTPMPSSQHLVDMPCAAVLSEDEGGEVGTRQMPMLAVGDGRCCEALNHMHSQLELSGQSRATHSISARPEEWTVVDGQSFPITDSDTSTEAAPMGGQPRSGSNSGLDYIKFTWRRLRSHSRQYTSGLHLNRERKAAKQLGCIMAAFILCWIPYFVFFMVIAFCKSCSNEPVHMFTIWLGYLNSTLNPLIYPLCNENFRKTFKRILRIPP

| SMILES | Activity [1] | Activity [2] | Activity [3] | Rf [4] | Rf [5] | Activity [6] |
| --- | --- | --- | --- | --- | --- | --- |
| CC(N)Cc1cnc[nH]1.Cl (stereo not given) | 0.36% | 0.8% | inactive |  |  |  |
| NCCc1c[nH]cn1 [HISTAMINE] |  |  |  | 0.7 | 0.52 |  |
| CC(C)(CN)c1cnc[nH]1 | < 0.001% |  | inactive |  |  | inactive |
| Cc1nc[nH]c1CCN(C)C.Cl | 0.1% | 3% |  | 0.57 | 0.72 |  |
| Cl.Cl.Cn1cnc(CCN)c1 [N-METHYLHISTAMINE DIHYDROCHLORIDE] | 0.5% |  | inactive |  |  |  |
| Cl.Cn1cncc1CCN | < 0.01% | <0.2% | inactive | 0.56 | 0.63 |  |
| CNCCc1cnc[nH]1.Cl | 72% | 74% |  | 0.68 | 0.46 |  |
| CC(CN)c1cnc[nH]1.Cl (stereo not given) | 0.83% | 0.4% | inactive |  |  |  |
| CN(C)CCc1cnc[nH]1.Cl | 44% | 19% |  |  |  |  |
| Cc1ncc(CCN(C)C)[nH]1.Cl | 16.8% | 1.4% |  |  |  |  |
| Cc1nc[nH]c1CCN.Cl | 0.23% | 39% |  | 0.7 | 0.56 |  |
| Cc1ncc(CCN)[nH]1.Cl | 16.5% | 2% |  |  |  |  |
| CNCCc1[nH]cnc1C.Cl | 0.16% | 8.2% |  | 0.7 | 0.51 |  |
